Counter-ions that a name gives are not always drawn. Like-named read-outs stand apart in the source and are kept apart here.
Experiments:
L6 muscle cells [1] = settings: 400 μM; cited from earlier work
[2] = system: C57BL/6J mice fed by high-fat diet; assay: free fatty acid and triglyceride in blood plasma of high-fat diet obese mice; assay type: in vivo; settings: 100 mg/kg/day for 2 weeks
Experimental: (§1) Ten mice per group were used to perform the efficacy study of the compounds. Dihydroberberine derivative 19 or its sulfate salt was mixed into the high-fat diet, and administered at a dose of 100 mg/kg/day for 2 weeks. After the mice were starved overnight, basal blood sugar value (0 min) was measured by taking blood from tail vein. Then the mice were injected glucose intraperitoneally at a dose of 2 g/kg according to the body weight of the mice in control group which were fed by normal diet followed by measuring blood sugar value at 15, 30, 45, 60, 90 and 120 min respectively and calculating the area under curve (AUC). The body weight and visceral fat of the mice were weighted, and the contents of fatty acid and triglyceride in the blood plasma of the mice were determined.
(§2) In FIGS. 2-4, CH-con means the normal mouse, HF-con refers to the obese mouse, HF-BBR19 is the obese mouse treated with dihydroberberine derivative 19 for 2 weeks, and HF-BBR19Y is the obese mouse treated with the sulfate salt of dihydroberberine derivative 19 for 2 weeks.

[3] = system: C57BL/6J mice fed by high-fat diet; assay: mouse models with insulin resistance and obesity induced by a high-fat diet (experimental conclusion); assay type: in vivo; settings: high-fat diet mouse model
Experimental: as §1

[4] = system: C57BL/6J mice fed by high-fat diet; assay: body weight and visceral fat of high-fat diet obese mice; assay type: in vivo; settings: 100 mg/kg/day for 2 weeks
Experimental: as §1, §2
Thus they may have a potential effect on treating obesity.

[5] = system: C57BL/6J mice fed by high-fat diet; assay: intraperitoneal glucose tolerance test (ipGTT) in high-fat diet obese mice; assay type: in vivo; settings: 100 mg/kg/day in high-fat diet for 2 weeks, glucose 2 g/kg intraperitoneally
Experimental: as §1, §2
The mice which had been treated with dihydroberberine derivative 19 or its sulfate salt for 2 weeks and the mice in control group were intraperitoneally injected glucose at 2 g/kg after being starved overnight. […]

p38 MAPK kinase = assay: immunoblotting assay of L6 muscle cells, p38 MAPK; assay type: cell-based
L6 muscle cells [6] = assay: glucose absorption model test in L6 muscle cells; assay type: cell-based
Experimental: (§3) In our study, the glucose transport rate in L6 muscle cells increased by about 3 times with 10 μM berberine hydrochloride. In a further glucose absorption model test in L6 muscle cells, the glucose absorption in L6 muscle cells increased by more than 2 times with […] berberine hydrochloride in 20 mM glucose medium. […] The improvement in glucose absorption induced by insulin was inhibited obviously, while that induced by berberine was not affected after the treatment with wortmannin, a specific inhibitor of insulin signaling pathway.

HepG2 cells = settings: 5-100 μmol of berberine; cited from earlier work
AMPK = assay: immunoblotting assay of L6 muscle cells, AMPK; assay type: cell-based
diabetic mice = settings: Liu 1996; cited from earlier work
type 2 diabetic patients = settings: cited from earlier work
[7] = system: insulin receptor genes and peroxisome proliferator activated receptor genes; settings: Jiang, CN01121906.8; cited from earlier work
βTC3 cells = settings: cited from earlier work
[8] = system: insulin signaling pathway; assay: immunoblotting assay of L6 muscle cells, insulin signaling pathway; assay type: cell-based
AMP:ATP ratio in cells = AMP:ATP ratio in cells by high performance liquid chromatography; assay type: cell-based; settings: HPLC
[9] = system: normal mice and alloxan-induced diabetic mice; settings: Chen, Xie 1986, cited from earlier work
L6 muscle cells [10] = assay: model test on the glucose transport in L6 muscle cells; assay type: cell-based; settings: 10 μM
Experimental: So, berberine belongs to non-insulin dependent glucose absorption enhancer in the peripheral tissues of the human body. […] In a model test on the glucose transport in L6 muscle cells, the transport rate of 3-methyl glucose in L6 muscle cells increased by about 0.5 times with 400 μM metformin hydrochloride. Berberine hydrochloride could achieve the same effect with less dosage than metformin in a model test on the glucose transport in L6 muscle cells in vitro.
as §3

Structure (SMILES): CN(C)C(=N)N=C(N)N [metformin hydrochloride]
- increase of transport rate of 3-methyl glucose in L6 muscle cells (L6 muscle cells [1]): about 0.5 times

Structure (SMILES): COc1ccc2c(c1OC)CN1CCc3cc4c(cc3C1=C2)OCO4 [Compound 19]
- content of free fatty acid (NEFA) in blood plasma ([2]; HF-Con 0.76±0.03): 0.6 ± 0.05 mmol/L
- content of triglyceride TG in blood plasma ([2]; HF-Con 1.20±0.05): 0.86 ± 0.08 mmol/L
- improving insulin resistance [3]: significant effects
- relieving fatty liver [3]: significant effects
- increase in body weight versus control group [4]: significantly less
- ratio of intra-abdominal (visceral) fat to body weight versus control group [4]: lowered significantly
- glucose tolerance (ipGTT, area under curve) [5]: significantly improved

Structure (SMILES): COc1ccc2cc3[n+](cc2c1OC)CCc1cc2c(cc1-3)OCO2 [berberine, Berberine]
- activity of p38 MAPK kinase (p38 MAPK kinase): significantly reinforced
- glucose absorption induced by berberine after treatment with AMPK and p38 MAPK specific inhibitors (L6 muscle cells [6]; Compound C and SB202190): obviously lowered
- glucose absorption induced by berberine after treatment with wortmannin (L6 muscle cells [6]; wortmannin, specific inhibitor of insulin signaling pathway): not affected
- increase of glucose consumption in HepG2 cells (HepG2 cells): 32-60%
- activity of AMPK (AMPK): significantly reinforced
- effect on reversing diabetic renal failure (diabetic mice): has a significant effect on reversing diabetic renal failure and
- fasting blood glucose levels of all patients (type 2 diabetic patients; 20 cases not improved by D860, glibenclamide etc., 3 months, Zhang 1999): levels of all patients were lowered to normal levels 3 months
- side effects (type 2 diabetic patients; 20 cases, Zhang 1999): dependent on dose, and no side effects such as hypoglycemia
- total efficiency (type 2 diabetic patients; 57 cases, berberine added after secondary failure of sulfonylurea alone or with metformin, 1 month, Wang 2002): efficiency was 81%.
- adverse effect during the treatment (type 2 diabetic patients; 60 cases, 1-3 months, Ni 1988): hemogram during the treatment and no obvious adverse effect
- average decrease of fasting blood glucose (type 2 diabetic patients; 60 cases, 1-3 months, Ni 1988): that the fasting blood glucose decreased averagely by 5.1 mmol/L
- toxic and/or adverse effects observed (type 2 diabetic patients; 60 cases, Hu 1995): patients with overweight recovered their normal weights. No
- blood serum insulin levels after the treatment (type 2 diabetic patients; 68 cases, Shi 2000): The blood serum insulin levels of the patients increased
- total efficiency (type 2 diabetic patients; 68 cases, Shi 2000): significantly, and the total efficiency was 86.8%. The action
- time to disappearance of polyuria, polydipsia and polyphagia for all patients (type 2 diabetic patients; 75 cases, Yu 1994): within two weeks after administration of berberine accompanying
- blood glucose levels, observed clinically (type 2 diabetic patients; Juan WANG 2004): decreased
- blood serum insulin levels, observed clinically (type 2 diabetic patients; Juan WANG 2004): increased
- curative effect (blood glucose, blood serum insulin) compared with Diamicron group (type 2 diabetic patients; non-insulin dependent diabetic patients, 30 persons per group, 4 weeks, Yu, Yan 1995): showed that the two groups had similar curative effects and no
- patients observed with adverse effects or hypoglycemia (type 2 diabetic patients; observed for 4 years, regardless of dose, Yu 1994): treated with berberine and observed for 4 years, and none of them
- expressions of insulin receptor genes and peroxisome proliferator activated receptor genes [7]: Berberine can interact with insulin receptors and increase
- stimulation of βTC3 cells to secrete insulin (βTC3 cells): did not stimulate
- effect on insulin signaling pathway [8]: little effect
- AMP:ATP ratio in cells (AMP:ATP ratio in cells): increased significantly
- effect on lowering blood glucose ([9]; dose of 40 mg/kg): atherosclerosis. It had a significant effect on lowering blood
- lowering blood glucose levels ([9]; normal mice and alloxan-induced diabetic mice): biguanides. It can lower blood glucose levels of both normal mice

Structure (SMILES): COc1ccc2cc3[n+](cc2c1OC)CCc1cc2c(cc1-3)OCO2 [berberine hydrochloride]
- increase of glucose absorption in L6 muscle cells (L6 muscle cells [6]; 5 berberine hydrochloride in 20 mM glucose medium): more than 2 times
- increase of glucose transport rate in L6 muscle cells (L6 muscle cells [10]): about 3 times
